Experimental data as given in patent US12704520B2, “Melanogenesis detection method using FAM86A” (Research & Business Foundation Sungkyunkwan University, priority 2019, dated 2026).

Key:
[1] = test system: B16F10 cells; experiment: Melanin content assay after FAM86A knockdown and α-MSH treatment; assay type: cell-based, mouse; conditions: FAM86A knockdown plus α-MSH 100 nM, 48 hours, absorbance 405 nm
Protocol: A melanocyte stimulating hormone (α-MSH), which is a melanin synthesis promoting hormone, was used to induce melanogenesis in melanocytes.
The B16F10 cells cultured in Example 1 were seeded in 6-well plates at a density of 5×10^4 cells per well, grown for 24 hours, and FAM86A shRNA represented by SEQ ID NO: 17 in Table 1 was used for knockdown of the FAM86A gene. The cells were treated with α-MSH to be 100 nM. The resulting cells were cultured in an incubator under conditions of 37° C. and 5% CO2 for 48 hours, the medium was removed, and a cell lysis buffer was treated at 200 μL per well to lyse the cells, followed by centrifugation at 4° C. and 12,000 rpm for 5 minutes and removal of a supernatant. The resulting pellet was treated with 100 μL of a 10% sodium dodecyl sulfate-1M NaOH solution and heated for 30 minutes at 60° C. Afterward, the heated solution was maintained at room temperature to cool to 25° C., absorbance at 405 nm was measured, and the results are shown in FIG. 12. Here, an amount of melanin production was calculated based on 100% of the amount of melanin in cells not treated with α-MSH.

[2] = test system: MAPK & MC1R signaling pathway proteins; experiment: Western blotting of MAPK & MC1R signaling pathway proteins after FAM86A knockdown; assay type: cell-based, mouse; conditions: B16F10 cells, 48 hours
Protocol: The B16F10 cells cultured in Example 1 were seeded in 6-well plates at a density of 5×10^4 cells per well, grown for 24 hours, and FAM86A shRNA represented by SEQ ID NO: 17 was used to induce the knockdown of FAM86A gene. The cells were cultured in an incubator under conditions of 37° C. and 5% CO2 for 48 hours. Afterward, the cells were washed twice with PBS. After completely removing the PBS, 200 μL of RIPA buffer, which is a cell lysis and staining reagent, was added to the plate, and the cells were collected using a scraper. Afterward, a protein was quantified using a BCA assay, and electrophoresis was performed using 10% SDS-PAGE. The protein in the resulting PAGE gel was transferred onto a PVDF membrane, and the resulting PVDF membrane onto which the protein transfer had been completed was blocked in TBS-T (in 100 mM NaCl, 10 mM Tris, 0.1% (v/v) Tween-20, pH 7.4 (PBST) containing 3% BSA) at room temperature. Then, after washing three times for 10 minutes using TBS-T, a primary antibody in 3% BSA dissolved in TBS-T was treated for 1 hour, and sufficiently washed with TBS-T. In addition, a secondary antibody was treated for 1 hour, and washed three times with PBS-T for 10 minutes each. Subsequently, the amount and location of a specific protein were confirmed using an ECL detection system. The correction of the protein amount was performed by checking the amount of an actin protein by stripping the PVDF membrane, and confirming it to have the same amount as that of the protein of interest. The primary and secondary antibodies were purchased from Cell Signaling and Santa Cruz.

[3] = test system: FAM86 (NM_027446.2); experiment: shRNA mean knockdown level of FAM86 (Table 1); assay type: cell-based; conditions: Mus musculus FAM86, pLKO.1 vector

Substance: SEQ ID NO: 17: FAM86 shRNA (Mus musculus, NM_027446.2), pLKO.1 vector, target sequence SEQ ID NO: 27; used in the examples (DNA CCGGGTCTATGTAGCCTATACTATCCTCGAGGATAGTATAGGCTACATAGACTTTTTG)
- amount of melanin (production) [1]: increased
- expression level of MITF protein [2]: significantly increased
- expression level of p-CREB protein [2]: significantly increased
- expression level of p-PKA protein [2]: significantly increased
- p-ERK [2]: decreased
- p-JNK [2]: increased
- p-p38 [2]: increased
- Mean Knock down level [3]: 0.87
